Test results taken from US20230138414A1, “METHODS AND COMPOSITIONS FOR PREVENTING AND TREATING MYOPIA” (The Trustees of Columbia University in the City of New York, priority 2020, published 2023).
Counter-ions that a name gives are not always drawn. Like-named read-outs stand apart in the source and are kept apart here.

Legend:
myopia development [1] = conditions: chickens and guinea pigs; cited from earlier work
sclera = conditions: rabbit, in vivo; cited from earlier work
[2] = system: progression of myopia in children; conditions: daily oral 400 mg (∼15 mg/kg), cited from earlier work
myopia [3] = conditions: 300 mg/kg dose, guinea pigs; cited from earlier work
induced myopia = conditions: 30 mg/kg dose, rabbits; cited from earlier work
myopia [4] = conditions: monkeys; effect strongly depended on the genetic background; cited from earlier work
[5] = system: mice with experimentally induced myopia; assay: Lens-induced myopia (-25 D lens over right eye, 3 weeks), drug in diet; format: in vivo, C57BL/6J (B6) mice; conditions: for interocular difference in refractive error between lens-treated eyes and control eyes: after 3 weeks of lens treatment, control group -10.47 ± 3.02 D; for inhibition (suppression) of myopia: systemic oral administration, 3 weeks, -25 D lens, B6 mice
Excerpt: Myopia was induced in 24-days old C57BL/6J (B6) mice by attaching -25 diopter (D) lens placed in a plastic 3D-printed frame over right eye. The contralateral eye served as control. Mice were raised with lenses for 3 weeks (FIG. 1A). After 3 weeks, the lenses were removed and refractive errors in the lens-treated eyes and contralateral control eyes were compared. Lens-treatment produced myopia in the lens-treated eyes (average refractive error = -14.6 ± 0.3 D) relative to the control eyes (average refractive error = +0.6 ± 0.6 D) (FIG. 1B); the interocular difference in refractive error (-15.2 ± 0.7 D) was highly significant (P < 0.0001). […] The diameter of lens-treated eyes was on average 65 ± 8 µm larger (P < 0.0001; FIG. 1C), and the vitreous chamber depth in the lens-treated eyes was 61 ± 4 µm longer (P < 0.0001; FIG. 1C), than that of the control fellow eyes.
The experimental group of B6 mice was raised with -25 D lenses over right eye (as described in Example 1) on a diet supplemented with 5 mg/kg of levocabastine hydrochloride for 3 weeks, while the control group of B6 mice with -25 D lenses over right eye was raised on a regular non-medicated diet. The interocular difference in refractive error between lens-treated eyes and control eyes in the levocabastine-treated animals after 3 weeks of lens treatment was +0.55 ± 2.32 D versus -10.47 ± 3.02 D in the control group, P-value = 2.83 × 10^-10.
(§1) The experimental group of B6 mice was raised with -25 D lenses over right eye on a diet supplemented with 1 mg/kg of fenoterol hydrobromide for 3 weeks, while the control group of B6 mice with -25 D lenses over right eye was raised on a regular non-medicated diet. The interocular difference in refractive error between lens-treated eyes and control eyes in the fenoterol-treated animals after 3 weeks of lens treatment was -0.8 ± 1.80 D versus -10.47 ± 3.02 D in the control group, P = 2.47 × 10^-08.
as §1, with “trichostatin A” for “fenoterol hydrobromide”, “trichostatin-A-treated” for “fenoterol-treated”, “0.48” for “-0.8”, “1.46” for “1.80”, “4.43” for “2.47”, “10^-10.” for “10^-08.”
(§2) The experimental group of B6 mice was raised with -25 D lenses over right eye on a diet supplemented with 0.3 mg/kg of fingolimod phosphate for 3 weeks, while the control group of B6 mice with -25 D lenses over right eye was raised on a regular non-medicated diet. The interocular difference in refractive error between lens-treated eyes and control eyes in the fingolimod-treated animals after 3 weeks of lens treatment was -0.02 ± 1.58 D versus -10.47 ± 3.02 D in the control group, P = 4.63 × 10^-9.
The experimental group of B6 mice was raised with -25 D lenses over right eye on a diet supplemented with 20 mg/kg of berberine chloride for 3 weeks, while the control group of B6 mice with -25 D lenses over right eye was raised on a regular non-medicated diet. The interocular difference in refractive error between lens-treated eyes and control eyes in the berberine-treated animals after 3 weeks of lens treatment was -5.15 ± 1.22 D versus -10.47 ± 3.02 D in the control group, P = 1.31 × 10^-4.
as §2, with “10” for “0.3”, “S-methyl-L-thiocitrulline hydrochloride” for “fingolimod phosphate”, “S-methyl-L-thiocitrulline-treated” for “fingolimod-treated”, “-0.28” for “-0.02”, “2.17” for “1.58”, “6.73” for “4.63”

myopia development [6] = conditions: chicken, mouse and non-human primates; cited from earlier work
progression of myopia [7] = conditions: 1-year period, cited from earlier work
[8] = system: development of ocular components and emmetropization; conditions: juvenile primates; cited from earlier work
progression of myopia [9] = conditions: cited from earlier work
[10] = system: progression of myopia in children; conditions: cited from earlier work
[11] = system: experimentally induced myopia; conditions: chickens; cited from earlier work
myopia [12] = conditions: guinea pigs; cited from earlier work
mouse model of myopia = conditions: cited from earlier work
experimental myopia = conditions: tree shrews, rhesus monkeys, and chickens; cited from earlier work
progression of myopia [13] = conditions: guinea pigs; cited from earlier work
[14] = system: progression of myopia in children; conditions: cited from earlier work; remark: listed apart in the source

CCCCP(=O)(O)C1CCC(N)C1 (stereo not shown) [3-ACPBPA, (3-aminocyclopentanyl) butylphosphinic acid]
suppression of myopia development (myopia development [1]): suppress myopia development

Cn1cnc2[nH]c(=O)[nH]c(=O)c21 [7-MX, 7-methylxanthine]
changes in the sclera (sclera): thickening of the sclera and an increase in the diameter of the scleral collagen fibrils | effect on myopia progression ([2]; subjects with high rates of progression): no effect | suppression of myopia ([2]; subjects with slow progressing myopia): approximately 22% | suppression of myopia (myopia [3]): 49% | reduction of the extent of induced myopia (induced myopia): approximately 67% | suppression of myopia (myopia [4]): can suppress myopia in primates

NCCCP(=O)(O)CC1CCCCC1 [CGP46381]
suppression of myopia development (myopia development [1]): suppress myopia development

[H]/N=C(\NCCC[C@H](N)C(=O)O)SC [S-methyl-L-thiocitrulline hydrochloride]
interocular difference in refractive error between lens-treated eyes and control eyes ([5]; diet supplemented with 10 mg/kg): -0.28 ± 2.17 D | inhibition (suppression) of myopia ([5]; 10 mg/kg in diet): approximately 97%

CP(=O)(O)C1=CCNCC1 [TPMPA, (1,2,5,6-tetrahydropyridin-4yl) methylphosphinic acid]
suppression of myopia development (myopia development [1]): suppress myopia development

CN1CCc2cccc3c2[C@H]1Cc1ccc(O)c(O)c1-3 [apomorphine]
inhibition of myopia development (myopia development [6]): inhibit myopia development

CN1[C@@H]2CC[C@H]1C[C@@H](OC(=O)C(CO)c1ccccc1)C2 (stereo partly shown) [atropine]
retardation of progression of myopia (progression of myopia [7]; 0.01% atropine): 27% | retardation of progression of myopia (progression of myopia [7]; 0.025% atropine): 43% | retardation of progression of myopia (progression of myopia [7]; 0.05% atropine): 67% | long-term effects on development of ocular components and emmetropization [8]: long-term adverse effects | retardation of the progression of myopia (progression of myopia [9]; 1% atropine eye drops, 2-year treatment period): approximately 76% | side effects (progression of myopia [9]; 1% atropine): photophobia, reduced accommodation amplitude, and blurred vision | long-term suppression effect ([10]; 0.01% atropine, 5-year follow up study): approximately 30% | drop of the progression rate after cessation of treatment ([10]; 0.01% atropine, after cessation of treatment): approximately 30% | retardation of the progression of myopia ([10]; 0.01% atropine, children): 59% | retardation of the progression of myopia ([10]; 0.1% atropine, children): 68% | suppression of the progression of myopia ([10]; 0.5% atropine, children): 75%

COc1ccc2cc3[n+](cc2c1OC)CCc1cc2c(cc1-3)OCO2 [berberine chloride]
interocular difference in refractive error between lens-treated eyes and control eyes ([5]; diet supplemented with 20 mg/kg): -5.15 ± 1.22 D | inhibition (suppression) of myopia ([5]; 20 mg/kg in diet): approximately 50%

Brc1c(NC2=NCCN2)ccc2nccnc12 [brimonidine]
inhibition of experimentally induced myopia [11]: suppressed myopia | suppression of myopia (myopia [12]): suppressed myopia

Clc1cccc(Cl)c1N=C1NCCN1 [clonidine]
inhibition of experimentally induced myopia [11]: inhibit experimentally induced myopia

CC(/C=C/C=C(\C)C(=O)O)=C\C=C\C=C(C)\C=C\C=C(/C)C(=O)O [crocetin]
outcome of drug screen (mouse model of myopia): potential anti-myopia agent

CC(Cc1ccc(O)cc1)NCC(O)c1cc(O)cc(O)c1 (stereo not shown) [fenoterol hydrobromide]
interocular difference in refractive error between lens-treated eyes and control eyes ([5]; diet supplemented with 1 mg/kg): -0.8 ± 1.80 D

CCCCCCCCc1ccc(CCC(N)(CO)COP(=O)(O)O)cc1 (stereo not shown) [fingolimod phosphate, fingolimod (FTY720) phosphate]
interocular difference in refractive error between lens-treated eyes and control eyes ([5]; diet supplemented with 0.3 mg/kg): -0.02 ± 1.58 D

N=C(N)NC(=O)Cc1c(Cl)cccc1Cl [guanfacine]
inhibition of experimentally induced myopia [11]: inhibit experimentally induced myopia

C[C@@H]1OC(=O)[C@H]2C[C@H]3CCCC[C@@H]3[C@@H](/C=C/[C@H]3CCC[C@H](C)N3C)[C@@H]12 [himbacine]
inhibition of the development of experimental myopia (experimental myopia): inhibit the development of experimental myopia

CC(C)OC(=O)CCC/C=C\C[C@@H]1[C@@H](CC[C@@H](O)CCc2ccccc2)[C@H](O)C[C@@H]1O [latanoprost]
reduction of progression of myopia (progression of myopia [13]): reduce progression of myopia

C[C@@H]1CN([C@H]2CC[C@](C#N)(c3ccc(F)cc3)CC2)CC[C@]1(C(=O)O)c1ccccc1 [levocabastine hydrochloride]
interocular difference in refractive error between lens-treated eyes and control eyes ([5]; diet supplemented with 5 mg/kg): +0.55 ± 2.32 D

CN1CCN(CC(=O)N2c3ccccc3C(=O)Nc3cccnc32)CC1 [pirenzepine]
inhibition of the development of experimental myopia (experimental myopia): inhibit the development of experimental myopia | suppression of the progression of myopia ([14]; children): 40% | side effects ([14]; clinical trials eventually discontinued): serious side effects

CC(=C\[C@@H](C)C(=O)c1ccc(N(C)C)cc1)/C=C(\C)C(=O)NO [trichostatin A]
interocular difference in refractive error between lens-treated eyes and control eyes ([5]; diet supplemented with 1 mg/kg): 0.48 ± 1.46 D | inhibition (suppression) of myopia ([5]; 1 mg/kg in diet): more than 100%
